In patent US10426773B2, “Systems pharmacology for treating ocular disorders” (Case Western Reserve Univeristy, priority 2011, dated 2019):
Where a name gives a salt, the structure may show the parent alone.

Experiments:
[1] = biological target: T1, D2 dopamine receptor (D2R) (Homo sapiens, UniProt P14416); test: BRET assay for G protein activation in live cells, D2R-Go; type: cell-based; conditions: for antagonistic activity on D2R (inhibition of BRET signal): preincubation with ligand, then 1 μM dopamine
T1 construct: Flag; host or cells: HEK293T/17
From the text: FIGS. 35(A-C) illustrate characterizing the activity of BRM, MTP, DOX, and TAM on dopamine and adrenaline receptors (A) Schematic representation of the BRET assay used to evaluate actions of drugs on selected GPCRs. […] The free Venus-Gβγ then interacts with the Gβγ-effector mimetic masGRK3ct-Nluc to produce the BRET signal. GDP, guanosine diphosphate; GRK, G protein-coupled receptor kinase; Nluc, nanoluciferase. (B) Left: Representative BRET signal traces recorded upon activation of D4R with indicated drugs in cells expressing Gαo and Venus-Gβγ, illustrating the agonism assay. Right: Representative traces of D2R responses to 1 μM dopamine in the absence (control) or presence of indicated drugs, illustrating antagonism assay. Note that, in the antagonism assay shown, the black trace overlaps with the red trace and therefore is not visible. (C) Top: Quantification of agonistic activity of ligands on D2R, D4R, D1R, and ADRA1A. D2R-GO, D4R-GO, D1R-Gs, and ADRA1A-Gq signaling were reconstituted in HEK293T/17 cells by transient transfection separately. Maximum amplitudes induced by dopamine (DA; 100 μM), noradrenaline (NA; 100 μM), BRM (25 μM), MTP (100 μM), DOX (50 μM), and TAM (100 μM) were plotted as bar graphs. […] The activity is plotted as percent inhibition. Data are means±SD. […]
(§1) BRET experiments were performed as previously reported with slight modifications. […] BRET measurements were performed using a microplate reader (POLARstar Omega, BMG Labtech) equipped with two emission photomultiplier tubes. […] The BRET signal is determined by calculating the ratio of the light emitted by Gβ1γ2-Venus (535 nm) over the light emitted by masGRK3ct-Nluc (475 nm). The average baseline value recorded before agonist stimulation was subtracted from BRET signal values, and the resulting difference (ABRET ratio) was obtained.
(§2) We used a real-time kinetic assay in which G protein activation by GPCRs is quantified by monitoring changes in the bioluminescence resonance energy transfer (BRET) signal between Venus-tagged Gβγ and its luciferase-tagged reporter in living cells (FIG. 35A). […]

[2] = tested on: Abca4−/−Rdh8−/− mice; test: Bright light-induced retinal degeneration in Abca4−/−Rdh8−/− mice, retinal histology and immunohistochemistry; type: in vivo, mouse; conditions: pretreatment before light 10,000 lux 30 min; 7-10 days after light exposure
Description: Retinal histology and immunohistochemistry (IHC) was performed as previously described. Briefly, eye cups free of cornea, lens and vitreous body were fixed in 2% glutaraldehyde/4% paraformaldehyde and processed for Epon embedding. Sections 1 am thick were cut and stained with toluidine blue for histological examination under a light microscope. IHC analysis was performed on 12 am thick cryosections prepared from 4% paraformaldehyde-fixed eye cups. Collected cryosections were subjected to examination for rhodopsin, PNA and DAPI expression.
Retinal immunohistochemistry (IHC) was carried out as previously described. Briefly, eyes were enucleated and eye cups were made to eliminate cornea, lens and vitreous body and fixed in 4% paraformaldehyde and processed for cryosectioning. 12 am thick cryosections were collected cryosections and subjected to examination for rhodopsin, peanut agglutinin lectin (PNA) and DAPI expression.
Retinal immunohistochemistry (IHC) was performed as previously described. Briefly, eyes were enucleated and, after removal of the cornea, lens and vitreous body, eye cups were fixed in 4% paraformaldehyde and processed for cryosectioning. Twelve μm thick cryosections were cut, collected and examined for rhodopsin expression, peanut agglutinin lectin (PNA) for cone sheath and nuclear DAPI staining. […]

[3] = biological target: T2, Dopamine D4 receptor (D4R) (Homo sapiens, UniProt P21917); test: BRET assay for G protein activation in live cells, D4R-Go; type: cell-based; conditions: for agonistic activity on D4R (BRET signal): HEK293T/17 cells, BRM 25 μM, MTP 100 μM, DOX 50 μM, TAM 100 μM
T2 construct: host or cells: HEK293T/17
T2 sequence (P21917 1-419): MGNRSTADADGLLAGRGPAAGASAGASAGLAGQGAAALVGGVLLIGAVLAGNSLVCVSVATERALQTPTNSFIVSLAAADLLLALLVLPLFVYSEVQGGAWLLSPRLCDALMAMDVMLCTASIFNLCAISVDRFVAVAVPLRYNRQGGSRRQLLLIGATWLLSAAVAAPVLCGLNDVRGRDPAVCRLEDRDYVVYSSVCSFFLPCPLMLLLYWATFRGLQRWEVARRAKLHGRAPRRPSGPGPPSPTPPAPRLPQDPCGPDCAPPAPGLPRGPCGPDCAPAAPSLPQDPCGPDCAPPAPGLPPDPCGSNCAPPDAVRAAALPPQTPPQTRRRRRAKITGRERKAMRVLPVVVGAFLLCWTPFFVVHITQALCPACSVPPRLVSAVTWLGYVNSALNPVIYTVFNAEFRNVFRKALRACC
From the text: FIGS. 35(A-C) illustrate characterizing the activity of BRM, MTP, DOX, and TAM on dopamine and adrenaline receptors (A) Schematic representation of the BRET assay used to evaluate actions of drugs on selected GPCRs. […] The free Venus-Gβγ then interacts with the Gβγ-effector mimetic masGRK3ct-Nluc to produce the BRET signal. GDP, guanosine diphosphate; GRK, G protein-coupled receptor kinase; Nluc, nanoluciferase. (B) Left: Representative BRET signal traces recorded upon activation of D4R with indicated drugs in cells expressing Gαo and Venus-Gβγ, illustrating the agonism assay. Right: Representative traces of D2R responses to 1 μM dopamine in the absence (control) or presence of indicated drugs, illustrating antagonism assay. Note that, in the antagonism assay shown, the black trace overlaps with the red trace and therefore is not visible. (C) Top: Quantification of agonistic activity of ligands on D2R, D4R, D1R, and ADRA1A. D2R-GO, D4R-GO, D1R-Gs, and ADRA1A-Gq signaling were reconstituted in HEK293T/17 cells by transient transfection separately. Maximum amplitudes induced by dopamine (DA; 100 μM), noradrenaline (NA; 100 μM), BRM (25 μM), MTP (100 μM), DOX (50 μM), and TAM (100 μM) were plotted as bar graphs. […] The activity is plotted as percent inhibition. Data are means±SD. Results are representative of two independent experiments each performed with 12 replicates.
Dopamine D1, dopamine D4, and α1A-adrenergic receptors were purchased from cDNA Resource Center (Bloomsburg University, Bloomsburg, Pa.). Plasmid encoding the Flag-tagged, long isoform of the D2 dopamine receptor was a gift from A. Kovoor (University of Rhode Island). pCMV5 plasmids encoding GαoA were gifts from H. Itoh (Nara Institute of Science and Technology, Japan). Plasmids encoding Venus 156-239-Gβ1 and Venus 1-155-Gγ2 were gifts from N. Lambert (Georgia Regents University). Plasmids encoding RGS9-2, Gβ5S, R7BP, and masGRK3ct-Nluc were previously described.
as §1, §2

[4] = tested on: BALB/c mice; test: Light-induced retinal degeneration in BALB/c mice, retinal morphology (OCT, histology, IHC); type: in vivo, mouse; conditions: for retinal morphology / ONL (OCT, histology): ip pretreatment 30 min before 10,000 lux, 7 days after light

T1 sequence (P14416 whole entry): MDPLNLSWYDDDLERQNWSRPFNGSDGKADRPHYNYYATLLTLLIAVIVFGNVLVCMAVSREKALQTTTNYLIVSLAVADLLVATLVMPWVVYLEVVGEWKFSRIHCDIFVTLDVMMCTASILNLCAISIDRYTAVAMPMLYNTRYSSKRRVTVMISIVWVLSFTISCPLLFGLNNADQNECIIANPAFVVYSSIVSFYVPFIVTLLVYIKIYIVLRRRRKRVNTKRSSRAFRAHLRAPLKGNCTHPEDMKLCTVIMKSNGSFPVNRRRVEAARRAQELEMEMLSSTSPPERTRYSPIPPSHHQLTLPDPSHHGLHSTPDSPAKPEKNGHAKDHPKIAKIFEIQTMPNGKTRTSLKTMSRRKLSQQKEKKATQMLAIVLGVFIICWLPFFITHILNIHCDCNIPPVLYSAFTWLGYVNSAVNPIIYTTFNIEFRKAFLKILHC

## COCCc1ccc(OCC(O)CNC(C)C)cc1 (stereo not shown) [MTP, metoprolol tartrate]
[1]; HEK293T/17 cells, BRM 25 μM, MTP 100 μM, DOX 50 μM, TAM 100 μM
  agonistic activity on D2R (BRET signal): no agonistic or antagonistic effects
[1]
  antagonistic activity on D2R (inhibition of BRET signal): no agonistic or antagonistic effects
[2]
  retinal histology / immunohistochemistry (rhodopsin, PNA, DAPI; ONL): preservation of the ONL and photoreceptor cells
[3]
  agonistic activity on D4R (BRET signal): no agonistic or antagonistic effects
[3]; preincubation with ligand, then 1 μM dopamine
  antagonistic activity on D4R (inhibition of BRET signal): no agonistic or antagonistic effects
[4]; BRM 2.5 mg/kg bw, MTP 10 mg/kg bw
  PNA staining of cone photoreceptors: nearly normal pattern of PNA staining
[4]
  retinal morphology / ONL (OCT, histology): preserved the ONL

## CCOc1ccccc1OCCN[C@H](C)Cc1ccc(OC)c(S(N)(=O)=O)c1.Cl [Tamsulosin]
[1]
  antagonistic activity on D2R (inhibition of BRET signal): antagonistic activity
[2]
  retinal histology / immunohistochemistry (rhodopsin, PNA, DAPI; ONL): substantially preserved photoreceptor morphology
[3]
  agonistic activity on D4R (BRET signal): partial agonistic effect

## COc1cc2nc(N3CCN(C(=O)C4COc5ccccc5O4)CC3)nc(N)c2cc1OC.CS(=O)(=O)O (stereo not shown) [Doxazosin]
[2]
  retinal histology / immunohistochemistry (rhodopsin, PNA, DAPI; ONL): substantially preserved photoreceptor morphology
[3]
  agonistic activity on D4R (BRET signal): partial agonistic effect
[4]
  retinal morphology / ONL (OCT, histology): retinal morphology of drug-treated mice was maintained
